Laboratory results: patent US20170065554A1, “ACTIVATED SOY POD FIBER” (priority 2014, published 2017)
Where “and” joins values, the source holds several entries; their conditions need not be identical. Equal entries are not always repeated.

Tested on: 3T3-L1 adipocytes
Assay: [3H]-2-deoxy-glucose uptake by adipocytes
Type: cell-based, Murine
Protocol: To determine if one mechanism for glyceollins to improve the oral glucose challenge in a prediabetic model is by increasing the glucose uptake by fat, glyceollin pharmacology was studied in 3T3-L1 cells. Murine preadipocytes (Zen-Bio Inc.) were cultured using PM-1-L1 medium (Zen-Bio Inc.) containing Dulbecco's modified Eagle's medium (DMEM)/Ham's F-10 medium (1:1, v/v), HEPES 15 mM (pH 7.4), 10% (v/v) fetal bovine serum, penicillin (100 U/ml), streptomvcin ([…]), and amphotericin B (0.25 μg/ml) in a humidified atmosphere (5% CO2/95% air). After 3-4 days, confluent cells were placed in differentiation medium (DM-2-L1, Zen-Bio Inc.) containing DMEM/Ham's F-10 medium (1:1, v/v), HEPES 15 mM (pH 7.4), 3% (v/v) fetal bovine serum, biotin ([…]), pantothenate (17 μM), human insulin (100 nM), dexamethasone (1 μM), penicillin (100 U/ml), streptomycin (100 μg/ml), amphotericin B (0.25 μg/ml), isobutylmethylxanthine ([…]) and PPARγ agonist (10 μM) and further incubated in the humidified atmosphere for 3 days. […]
Adipocytes were rinsed in sterile, fresh KRH buffer (HEPES pH=7.4, 1 mM CaCl2, 1.2 mM MgSO4, 1 mM KH2PO4, 1.4 mM KCl, […], 130 mM NaCl), and then preincubated for 24 h in KRH buffer. […] The vials were mixed and counted for 10 min in an Applied Biosystems 1100 liquid scintillation counter using the factory preset window to detect tritium.

## insulin
0.3 nM-300 nM insulin
  maximal stimulation relative to basal glucose uptake: about 3 times
Insulin 30 min at 37° C., then 10 min [3H]-2-deoxy-glucose, read-out: EC50 of insulin-mediated glucose uptake
  EC50: 1.9 nM and 1.92 nM
